# Laboratory results from ChEMBL document CHEMBL1144950, “Structure--activity relationships of azasugar-based MMP/ADAM inhibitors” (Bioorg Med Chem Lett, 2003).
# What was measured:
# [1] = target: Matrix metalloproteinase-9 (Homo sapiens, UniProt P14780); experiment: Inhibition of recombinant human matrix metalloprotease-9
# [2] = target: T1, Disintegrin and metalloproteinase domain-containing protein 17 (Homo sapiens, UniProt P78536); experiment: Inhibition of recombinant human TNF-alpha converting enzyme (TACE)
# T1 sequence (P78536 whole entry, the tested form may be a part): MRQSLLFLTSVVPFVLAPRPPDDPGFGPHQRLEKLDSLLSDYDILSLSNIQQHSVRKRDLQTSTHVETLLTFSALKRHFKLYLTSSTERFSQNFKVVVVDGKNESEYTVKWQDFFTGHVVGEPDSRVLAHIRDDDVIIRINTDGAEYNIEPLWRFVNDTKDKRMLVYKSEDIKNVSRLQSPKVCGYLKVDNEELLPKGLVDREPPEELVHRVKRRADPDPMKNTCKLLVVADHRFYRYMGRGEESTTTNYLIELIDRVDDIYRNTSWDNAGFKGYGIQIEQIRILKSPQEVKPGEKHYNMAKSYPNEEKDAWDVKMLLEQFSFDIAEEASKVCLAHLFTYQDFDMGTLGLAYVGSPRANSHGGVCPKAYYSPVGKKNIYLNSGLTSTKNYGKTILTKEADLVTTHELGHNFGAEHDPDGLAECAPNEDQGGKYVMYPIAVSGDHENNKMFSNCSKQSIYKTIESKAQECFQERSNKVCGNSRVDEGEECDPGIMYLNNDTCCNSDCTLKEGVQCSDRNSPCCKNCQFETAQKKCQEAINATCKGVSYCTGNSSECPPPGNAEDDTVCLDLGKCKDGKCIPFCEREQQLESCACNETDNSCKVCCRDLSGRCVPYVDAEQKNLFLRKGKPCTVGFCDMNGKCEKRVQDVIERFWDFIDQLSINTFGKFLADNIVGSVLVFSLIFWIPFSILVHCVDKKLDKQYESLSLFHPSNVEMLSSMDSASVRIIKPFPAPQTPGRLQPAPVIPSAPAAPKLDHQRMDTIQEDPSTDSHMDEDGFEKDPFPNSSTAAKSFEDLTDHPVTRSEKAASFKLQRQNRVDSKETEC
# Stromelysin-1 = Stromelysin-1 (Homo sapiens, UniProt P08254); experiment: Inhibition of recombinant human matrix metalloprotease-3
# Chain of Stromelysin-1 (P08254 whole entry): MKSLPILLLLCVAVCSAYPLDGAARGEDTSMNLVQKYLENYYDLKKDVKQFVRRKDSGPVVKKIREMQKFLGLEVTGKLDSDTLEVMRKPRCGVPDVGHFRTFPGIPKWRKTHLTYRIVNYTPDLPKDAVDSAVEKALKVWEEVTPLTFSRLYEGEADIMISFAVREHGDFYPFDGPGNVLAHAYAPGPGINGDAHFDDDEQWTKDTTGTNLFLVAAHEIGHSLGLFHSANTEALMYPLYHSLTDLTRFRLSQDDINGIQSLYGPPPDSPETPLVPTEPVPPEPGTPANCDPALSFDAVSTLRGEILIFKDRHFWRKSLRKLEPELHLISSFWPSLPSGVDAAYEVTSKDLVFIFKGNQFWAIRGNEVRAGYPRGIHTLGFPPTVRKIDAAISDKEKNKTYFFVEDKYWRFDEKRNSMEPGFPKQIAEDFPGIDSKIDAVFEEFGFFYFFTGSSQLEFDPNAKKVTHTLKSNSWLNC
# Interstitial collagenase = target: T2, Interstitial collagenase (Homo sapiens, UniProt P03956); experiment: Inhibition of recombinant human matrix metalloprotease-1
# T2 sequence (P03956 whole entry): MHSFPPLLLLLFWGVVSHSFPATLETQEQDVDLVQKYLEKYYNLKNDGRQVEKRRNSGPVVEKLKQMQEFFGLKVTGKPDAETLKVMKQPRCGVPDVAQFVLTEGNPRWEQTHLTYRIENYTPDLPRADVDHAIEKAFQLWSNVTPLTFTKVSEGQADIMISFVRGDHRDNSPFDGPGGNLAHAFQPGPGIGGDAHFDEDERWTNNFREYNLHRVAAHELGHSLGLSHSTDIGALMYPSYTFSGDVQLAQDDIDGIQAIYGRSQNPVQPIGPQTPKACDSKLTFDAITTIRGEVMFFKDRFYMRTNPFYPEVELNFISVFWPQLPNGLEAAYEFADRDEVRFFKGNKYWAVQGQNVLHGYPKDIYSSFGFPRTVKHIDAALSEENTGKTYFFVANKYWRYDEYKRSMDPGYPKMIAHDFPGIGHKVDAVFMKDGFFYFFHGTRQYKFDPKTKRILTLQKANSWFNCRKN
# [3] = target: T1, Disintegrin and metalloproteinase domain-containing protein 17; experiment: Inhibition of recombinant human TNF-alpha converting enzyme
# Chain of Matrix metalloproteinase-9 (P14780 whole entry, the tested form may be a part): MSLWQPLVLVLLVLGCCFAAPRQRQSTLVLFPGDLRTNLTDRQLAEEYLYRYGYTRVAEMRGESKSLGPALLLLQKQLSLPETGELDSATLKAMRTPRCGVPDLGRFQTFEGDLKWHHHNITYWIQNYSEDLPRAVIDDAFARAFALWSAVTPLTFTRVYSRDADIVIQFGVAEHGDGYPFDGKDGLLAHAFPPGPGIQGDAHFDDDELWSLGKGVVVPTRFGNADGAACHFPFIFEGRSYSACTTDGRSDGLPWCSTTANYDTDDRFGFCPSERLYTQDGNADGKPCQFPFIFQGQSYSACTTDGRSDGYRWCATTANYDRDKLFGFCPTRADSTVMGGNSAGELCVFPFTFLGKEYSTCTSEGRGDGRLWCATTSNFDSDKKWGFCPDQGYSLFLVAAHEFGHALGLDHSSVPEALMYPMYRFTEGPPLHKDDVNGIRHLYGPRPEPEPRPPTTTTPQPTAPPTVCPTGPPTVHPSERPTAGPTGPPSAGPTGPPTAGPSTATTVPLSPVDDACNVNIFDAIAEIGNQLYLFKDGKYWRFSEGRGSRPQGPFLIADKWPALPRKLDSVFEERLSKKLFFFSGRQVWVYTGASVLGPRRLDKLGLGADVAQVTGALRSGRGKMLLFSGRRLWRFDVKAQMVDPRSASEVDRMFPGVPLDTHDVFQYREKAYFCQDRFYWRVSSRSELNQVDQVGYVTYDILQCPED
Ki [2] [µM],Ki (Interstitial collagenase) [µM],Ki [3] [µM],SMILES,Ki [1] [µM],Ki (Stromelysin-1) [µM]
0.0087,> 0.85,,CCOCCOc1ccc(S(=O)(=O)N2C[C@H](O)[C@@H](O)[C@H](O)[C@@H]2C(=O)NO)cc1,0.064,0.042
,0.008,0.0023,O=C(NO)[C@H]1[C@@H](O)[C@H](O)[C@@H](O)CN1S(=O)(=O)c1ccc(Oc2ccccc2)cc1,,0.00051
0.012,0.025,,COc1ccc(S(=O)(=O)N2C[C@H](O)[C@@H](O)[C@H](O)[C@@H]2C(=O)NO)cc1,,
0.34,0.45,,COc1ccc(S(=O)(=O)N2C[C@@H](O)[C@H](O)[C@@H](O)[C@@H]2C(=O)NO)cc1,,
0.071,,,COc1ccc(S(=O)(=O)N2C[C@H](O)[C@@H](O)[C@@H](O)[C@@H]2C(=O)NO)cc1,,
0.51,> 0.85,,COc1ccc(S(=O)(=O)N2C[C@H](O)[C@H](O)[C@@H](O)[C@@H]2C(=O)NO)cc1,,

SMILES,Ki [2] [µM],Ki (Interstitial collagenase) [µM],Ki [3] [µM],Ki [1] [µM],Ki (Stromelysin-1) [µM]
O=C(NO)[C@H]1[C@@H](O)[C@H](O)[C@@H](O)CN1S(=O)(=O)c1ccc(OC2CCCCC2)cc1,0.067,0.1,,0.00093,0.0018
O=C(NO)[C@H]1[C@@H](O)[C@H](O)[C@@H](O)CN1S(=O)(=O)c1ccc(OCc2ccccc2)cc1,0.0016,0.85,,0.0061,0.0026
